Source: US20200024278A1, “COMPOSITION COMPRISING ANTIBIOTIC COMPOUND AND AN HETEROCYCLIC COMPOUND AND THEIR USE IN PREVENTING OR TREATING BACTERIAL INFECTIONS” (MUTABILIS, priority 2016, published 2020)

What was measured:
Experiment in all cases: MIC, broth microdilution (CLSI), substance alone or ATB combined with compound at 4 or 8 μg/mL
Type in all cases: cell-based, A. baumannii
Settings in all cases: Acinetobacter baumannii, substance alone, read-out: MIC
[1] = test system: ABA UFR161
Summary of the method: (§1)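 CLSI M7-A7 broth microdilution. ca-MHB, 5·10^5 CFU/mL log-phase cells, 16-20 h, 35° C, ambient air. Fosfomycin wells + 25 μg/ml glucose-6-phosphate. Visual MIC read.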

[2] = test system: ABA UFR157
Summary of the method: as §1

[3] = test system: ABA UFR152
Summary of the method: as §1

[4] = test system: ABA UFR158
Summary of the method: as §1

[5] = test system: ABA UFR154
Summary of the method: as §1

[6] = test system: ABA UFR156
Summary of the method: as §1

[7] = test system: ABA UFR155
Summary of the method: as §1

[8] = test system: ABA UFR159
Summary of the method: as §1

[9] = test system: ABA 19606
Summary of the method: as §1

[10] = test system: ABA UFR153
Summary of the method: as §1

[11] = test system: ABA 107292
Summary of the method: as §1

Measured: MIC

O=C1N2CC(n3cccn3)=CC(C2)N1OS(=O)(=O)[O-].[Na+] (centres unmarked) [Example 11, sodium (7-oxo-3-pyrazol-1-yl-1,6-diazabicyclo[3.2.1]oct-3-en-6-yl) sulfate]
> 32 µg/mL: all assays above
